Values after ≈ are worked out from the molar mass of the structure shown. Values joined by “and” are separate entries in the source; they are usually repeats but may differ in a detail not shown here. Equal values may be shown once. “Also recorded” adds a separate entry of the source. No end group written: not given here. *: point of attachment. For = O=C*
Columns and labels:
[1] = Binding of complexes to heparin or sucrose octasulfate (dialysis, UV-Visible titration, solubilization)
Procedure: UV-Visible spectrophotometric titration indicates maximum binding occurs at a molar ratio of 18:1 (iron-porphine:heparin).
(a) To this resulting aqueous dispersion of complex is added beef lung heparin, to give final complex-to-heparin ratios of between 95:5 and 5:95 (by weight). […] This apparent solubilization is indicative of paired-ion binding between triethylenetetraamine-iron and heparin.
(b) To the aqueous dispersion of triethylenetetraamine-iron complex is added sucrose octasulfate (SOS), to give final complex-to-SOS ratios of between 95:5 and 5:95 (by weight).

[2] = test system: syngeneic breast adenocarcinoma; test: Special histologic iron stain of breast adenocarcinoma; format: in vivo, Fisher 344 female rats; details: central tumor, 7-10 MPI
Source text: FIG. 6. Special histologic stain (heated ferroferricyanide reaction) of formalin-fixed section of syngeneic breast adenocarcinoma excised from liver inoculation site of Fisher 344 female rats: […] Sulfate Selective MRI Contrast Agent.
(§1) Tumors are not conspicuous on standard T1-weighted Precontrast images. […] The sustained intervals shown in FIG. 8A, FIG. 8B and FIG. 8C are much longer than those typically reported for Gd:DTPA dimeglumine contrast enhancement at body organ sites.

[3] = T1 relaxivity (R1), IBM PC20 Minispectrometer / ICP-AA metal measurement; format: physicochemical
Procedure: Batch quantities of the Fe(III) chelate of deferoxamine are prepared as follows. Deferoxamine mesylate (methanesulfonate) (Ciba-Geigy Limited, Basel, Switzerland), 390 g, is dissolved in pharmaceutical-grade water. Alternatively, the chloride salt of deferoxamine may be used. […] This final batch volume is adjusted as desired, typically to a final volume of 2600 mL. Any remaining trace amounts of unreacted Fe(O)OH are removed and the solution also made aseptic, by passing the supernatant through a 0.22 μm Millipore GV-type filter in a Class 100 laminar flow hood. The resulting batch is stored at 4° C. in an autoclaved, sealed glass container until further use (see Examples below). The final concentration of ferrioxamine (DFe) is determined once again by UV-Visible absorbance spectrophotometry at 430 nm.
The pH is adjusted to 7.0 by addition of 1.0 N NaOH. […] In the case of gadolinium oxide, neutralization with 1.0 N NaOH is not needed. […] This precipitate is rewashed with ethanol and centrifuged (as above), washed with acetone plus centrifuged, and the collected precipitate dried over a stream of dry nitrogen.

[4] = test system: syngeneic breast adenocarcinoma; test: MRI contrast enhancement of breast adenocarcinoma inoculated in liver (and metastases); format: in vivo, Fisher 344 female rats; details: 7 MPI, 0.155 mmol/Kg i.v.
Source text: FIG. 2A, FIG. 2B, FIG. 3A, FIG. 3B, FIG. 4A, FIG. 4B, FIG. 4C, FIG. 4D and FIG. 8A, FIG. 8B and FIG. 8C show T1-weighted MRI images (TR/TE=800/45, 550/23 and 600/45) performed at 1.0 and 1.5 Tesla, before (Pre) and after (Post) intravenous (i.v.) injection of Ferrioxamine:Dermatan Sulfate Selective Paramagnetic Contrast Agent, prepared as in Examples 2 and 5, and injected i.v. at a Ferrioxamine dose of 0.155 mmol/Kg into Fisher 344 female rats, with syngeneic breast adenocarcinoma inoculated previously into the liver, such that tumor diameters at the time of imaging are between 1.0 cm and 2.5 cm.
as §1
T1-weighted MRI images (TR-TE=800/45) are performed at 1.0 Tesla, before (Pre) and after (Post) intravenous (i.v.) injection of Gd:MPD-DTPA:DS (DS=435 Type, Opocrin) at a dose of 0.155 mmol/kg into Fisher 344 female rats with syngeneic breast adenocarcinomas inoculated by trocar into the livers, as in Example 18 (above). A T2 scout image (TR/TE=2100/85) is performed in advance of the T1 image contrast series, in order to identify the approximate location(s) of tumor nodule(s) (FIG. 18A). […]

acute myocardial infarct = test: MRI contrast enhancement of acute myocardial infarcts; format: in vivo, German Shepherd dogs; details: 0.155 mmol/Kg
Source text: FIG. 11A, FIG. 11B, FIG. 11C and FIG. 11D show T1-weighted MRI ECG-gated cardiovascular images performed at 0.5 Tesla, before (Pre) and after (Post) rapid intravenous (i.v.) infusion of Ferrioxamine:Dermatan Sulfate Selective Paramagnetic Contrast Agent prepared as in Examples 2 and 5, and injected i.v. at an Iron(III) dose of 0.155 mmol/Kg into German Shepherd dogs with acute, 90-min myocardial infarcts (ligature of proximal left anterior descending coronary artery) followed by reperfusion for ca. 90 minutes prior to contrast agent infusion.
In these studies, infarct sizes and positions are documented by double dye infusion performed immediately after MRI imaging.

[5] = comparison value; cited from earlier work
[6] = test system: AT-1 prostate adenocarcinoma; test: MRI contrast enhancement of AT-1 prostate adenocarcinoma; format: in vivo, Copenhagen rats
Procedure: FIG. 14A, FIG. 14B, FIG. 14C and FIG. 14D show MRI 4.7 Tesla, T1-weighted images of Copenhagen rats with the AT-1 prostate tumor model (as in FIG. 13A, FIG. 13B, FIG. 13C and FIG. 13D), but rats are injected i.v. with Ferrioxamine Selective Contrast Agent, wherein the Active is non-covalently bound to Oversulfated Dermatan Sulfate, the Agent lyophilized and reconstituted with water just prior to administration at a concentration of 0.332 mmol/mL Fe(III) and administered at the usual dose of 0.155 mmol of Fe(III) per Kg.
FIG. 15A, FIG. 15B, FIG. 15C and FIG. 15D show MRI 4.7 Tesla, T1-weighted images of Copenhagen rats with the AT-1 prostate tumor model (as in FIG. 13A, FIG. 13B, FIG. 13C and FIG. 13D), but rats are injected i.v. with Ferrioxamine Selective Contrast Agent, wherein the Active is non-covalently bound to Oversulfated Chondroitin Sulfate, the Agent lyophilized and reconstituted with water just prior to administration at a concentration of 0.332 mmol/mL Fe(III) and administered at the usual dose of 0.155 mmol of Fe(III) per Kg.
FIG. 16A, FIG. 16B, FIG. 16C and FIG. 16D show MRI 4.7 Tesla, T1-weighted images of Copenhagen rats with the AT-1 prostate tumor model (as in FIG. 13A, FIG. 13B, FIG. 13C and FIG. 13D), but rats are injected i.v. with Ferrioxamine Selective Contrast Agent, wherein the Active is non-covalently bound to a non-anticoagulant GAG, Heparan Sulfate, the Agent lyophilized and reconstituted with water just prior to administration at a concentration of 0.332 mmol/mL Fe(III) and administered at the usual dose of 0.155 mmol of Fe(III) per Kg.
FIG. 19A, FIG. 19B, FIG. 19C, FIG. 19D and FIG. 19E show T1-weighted images at 4.7 Tesla (TR/TE=250/8) of Copenhagen rats with syngeneic AT-1 prostate adenocarcinomas inoculated into previously prepared skin pouches [Hahn et al. (1993)], and imaged at diameters of 1.0-2.5 cm.
Based on low anticoagulant activity, safety and projected site-localizationpotential, certain alternative glycosaminoglycan carriers and certain alternative physical forms of the resulting Selective MRI Contrast Agents are compared for their relative in vivo potencies of carrier-mediated tumor localization of bound Ferrioxamine. Because of its high spatial resolution and capacity to detect subtle quantitative differences in agent localization, the AT-1 prostate tumor model of Example 19 is used.

[7] = test system: syngeneic breast adenocarcinoma; details: rat, in vivo, iv; cited from earlier work
[8] = Gd(III) when chelated by DTPA; cited from earlier work
[9] = Binding of active to dermatan sulfate carrier (dialysis retention, 500 MW cutoff); details: for paired-ion binding of peptide to dermatan sulfate: ca. 60:40 (active to dermatan sulfate)
Procedure: (§2) Multiple batches of Ferrioxamine:Dermatan Sulfate Agent have been prepared.
Vincristine (Sigma Chemical Co., St. Louis) is dissolved in water and mixed with dermatan sulfate at ratios of between 90:10 and 30:70 (w/w) drug to dermatan sulfate.
Amikacin, gentamicin and tobramycin (all obtained from Sigma Chemical Co., St. Louis) are dissolved in water and mixed with either dermatan sulfate (435 Type) or beef lung heparin (Hepar-Kabi-Pharmacia) at ratios of between 90:10 and 30:70 (w/w) drug to glycosaminoglycan.

physchem = details: water
Source text: as §2

antithrombin III = details: cited from earlier work

Compound: 5,10,15,20-tetrakis(1-methyl-4-pyridyl)-21H-23H-porphine [iron-porphine]
- Binding of iron-porphine to heparin [1]: ~100%
- dialysis of iron-porphine alone [1]: nearly completely dialyzed
- molar ratio at maximum binding (iron-porphine:heparin) [1]: 18:1

Compound: CC(=O)N([O-])CCCCCNC(=O)CCC(=O)N([O-])CCCCCNC(=O)CCC(=O)N([O-])CCCCCN.[Fe+3] [Ferrioxamine]
- staining positivity for iron [2]: complete absence of staining positivity
- R1 (T1 relaxivity) [3]: 1.5-1.8 [mmol.sec]^-1 and 1.6-1.8 [mmol.sec]^-1 and 1.6 (mmol.sec)^-1
- MRI contrast enhancement of breast tumor in liver [4]: only very slight or nonexistent
- MRI enhancement of infarct, active without carrier (acute myocardial infarct): no detectible enhancement
- MRI enhancement of infarct, active without carrier (acute myocardial infarct; listed as Ferrioxamine Agent Alone): no detectable enhancement

Compound: CNC[C@H](O)[C@@H](O)[C@H](O)[C@H](O)CO.CNC[C@H](O)[C@@H](O)[C@H](O)[C@H](O)CO.O=C([O-])CN(CCN(CC(=O)[O-])CC(=O)O)CCN(CC(=O)[O-])CC(=O)O.[Gd+3] [Gd:DTPA dimeglumine]
- LD50 [5]: 4.0 mmol/kg
- MRI contrast enhancement of AT-1 tumor ([6]; 7 MPI): the outer rim is not well delineated
- MRI contrast enhancement of AT-1 tumor ([6]; 20 MPI): Marked early contrast fading occurs overall in the tumor
- MRI contrast enhancement of AT-1 tumor ([6]; 40 MPI): enhancement is nearly reverted to background levels; also recorded: enhancement reverts to essentially background levels
- MRI contrast enhancement of AT-1 tumor ([6]; 60 MPI): no residual contrast, except for central cystic regions

Compound: O=C([O-])CN(CCN(CC(=O)[O-])CC(=O)O)CCN(CC(=O)[O-])CC(=O)O.[Gd+3] [Gd:DTPA]
- t1/2 at the site [7]: 12 to 20 min
- in vitro R1 [8]: 4.0-4.3 [mmol.sec]^-1

Compound: CC[C@]1(O)C[C@H]2CN(CCc3c([nH]c4ccccc34)[C@@](C(=O)OC)(c3cc4c(cc3OC)N(C=O)[C@H]3[C@@](O)(C(=O)OC)[C@H](OC(C)=O)[C@]5(CC)C=CCN6CC[C@]43[C@@H]65)C2)C1 [Vincristine]
- retention inside 500 MW cutoff dialysis bag [9]: not the drug alone

Compound: CC(=O)N(O)CCCCCNC(=O)CCC(=O)N(O)CCCCCNC(=O)CCC(=O)N(O)CCCCCN [deferoxamine]
- solubility (physchem): 320 mg/mL (≈ 571 mM)

Compound: N-formyl-met-leu-phe-lys (For-MLFK) [basic white-cell chemoattractant peptide, formulated with dermatan sulfate]
- paired-ion binding of peptide to dermatan sulfate [9]: Strong paired-ion binding
- fluorescence on binding to dermatan sulfate ([9]; emission 518 nm, excitation 257 nm): fluorescence enhancement

Compound: arg-pro-pro-gly-phe-ser-pro-phe-arg (RPPGFSPFR; formulated with dermatan sulfate) [arginine bradykinin, basic peptide, formulated with dermatan sulfate]
- paired-ion binding of peptide to dermatan sulfate [9]: Strong paired-ion binding

Compound: dermatan sulfate
- inhibition of antithrombin III (antithrombin III): neither dermatan sulfate nor its 8-12 unit fragment inhibits
